Some results are limits rather than exact numbers.

The text below walks through data of ChEMBL document CHEMBL1150076, “Effects of various isoquinoline alkaloids on in vitro 3H-dopamine uptake by rat striatal synaptosomes” (J Nat Prod, 1995).

Sodium-dependent dopamine transporter, sequence (P23977 whole entry): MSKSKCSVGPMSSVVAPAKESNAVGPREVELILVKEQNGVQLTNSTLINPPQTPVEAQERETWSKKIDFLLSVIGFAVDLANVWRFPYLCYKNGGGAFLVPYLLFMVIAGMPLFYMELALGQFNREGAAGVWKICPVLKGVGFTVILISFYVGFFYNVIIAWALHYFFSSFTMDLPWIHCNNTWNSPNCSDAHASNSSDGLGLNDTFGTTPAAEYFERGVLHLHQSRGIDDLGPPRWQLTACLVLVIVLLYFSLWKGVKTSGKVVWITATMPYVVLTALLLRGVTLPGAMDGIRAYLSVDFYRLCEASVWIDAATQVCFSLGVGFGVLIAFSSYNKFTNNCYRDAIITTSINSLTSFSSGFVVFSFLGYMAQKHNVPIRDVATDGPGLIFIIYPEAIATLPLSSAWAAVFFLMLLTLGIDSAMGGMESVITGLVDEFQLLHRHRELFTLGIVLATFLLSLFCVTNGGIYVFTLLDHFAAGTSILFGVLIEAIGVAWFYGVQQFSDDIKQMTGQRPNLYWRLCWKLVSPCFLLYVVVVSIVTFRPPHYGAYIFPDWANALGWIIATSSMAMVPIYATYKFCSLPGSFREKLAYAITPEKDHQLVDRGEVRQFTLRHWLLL

The experiment concerns the target Sodium-dependent dopamine transporter (Rattus norvegicus, UniProt P23977). The class given is subcellular, Wistar, Brain, Synaptosomes.
Consider `COc1cccc2c1-c1c3c(cc4c1[C@@H](C2)N(C)CC4)OCO3`, for which the IC50 – broadly, the concentration needed to halve the response being measured – came to 31.8 µM.

Regarding `COc1ccc2c(c1)c(C)c1c3c(cc4c(c32)OCO4)CCN1C`, the IC50 came out at 46.6 µM.

In turn, `COc1cc2c(cc1OC)[C@@H](Cc1ccc(Oc3cc(C[C@@H]4c5cc(OC)c(OC)cc5CCN4C)ccc3OC)cc1)N(C)CC2` displayed an IC50 of 5.8 µM.

Take `COc1c(O)c2c3c(c1OC)CCN(C)[C@@H]3Cc1ccccc1-2`: inhibition was half-maximal at 46.4 µM (IC50).

`O=C(O)CCCCCCNC1c2ccccc2CCc2ccccc21` [AMINEPTINE] yielded an IC50 of 1 µM.

As to `Oc1ccc2c(c1)C[C@H]1NCCc3cc4c(c-2c31)OCO4` [ANOLOBINE], the IC50 was determined as 8.1 µM.

With `c1ccc2c(c1)C[C@H]1NCCc3cc4c(c-2c31)OCO4` [ANONAINE], it took 0.8 µM to reach half-maximal inhibition (IC50).

On to `COc1cc2c3cc1Oc1c(O)c(OC)cc4c1[C@H](Cc1ccc(OC)c(c1)-c1cc(ccc1O)C[C@H]3N(C)CC2)N(C)CC4` [ANTIOQUINE], for which the midpoint of inhibition, the IC50, lay at 3.4 µM.

Molecule `Cc1c2c3c(cc4c(c3c3ccc(O)cc13)OCO4)CCN2C` [BELEMINE] had an IC50 of 61.4 µM.

Molecule `COc1cc2c(cc1O)C[C@H]1c3c(ccc(O)c3O2)CCN1C` [BREOGANINE] registered an IC50 of 56.5 µM.

As to `COc1cc2c(cc1O)Oc1c(O)ccc3c1[C@H](C2)N(C)CC3` [CELTISINE], the IC50 is above 100 µM.

Molecule `COc1ccc2c(c1O)Oc1c(O)ccc3c1[C@H](C2)N(C)CC3` [CLAVICULINE] displayed an IC50 above 100 µM.

With `COc1cc2c(cc1OC)Oc1c(O)ccc3c1[C@H](C2)N(C)CC3` [CULARIDINE], the IC50 was found to be 41.2 µM.

In turn, `COc1cc2c(cc1OC)[C@@H](Cc1ccc(Oc3cc(C[C@H]4c5cc(OC)c(OC)cc5CCN4C)ccc3OC)cc1)N(C)CC2` [DIMETHYLGRISABINE] gave an IC50 of 1.1 µM.

`COc1cc2c3cc1Oc1c(OC)c(OC)cc4c1[C@@H](C(=O)c1ccc(OC)c(c1)-c1cc(ccc1OC)C[C@H]3N(C)CC2)N(C)CC4` [DIMETHYLPSEUDOXANDRINE] came in with an IC50 of 20.1 µM.

`COc1cc2c3c(c(-c4c5c6c(cc7c(c6c6ccccc46)OCO7)CCN5)c4ccccc4c3c1OC)NCC2` [HETEROPSINE] registered an IC50 above 100 µM.

As for `COc1ccc2cc1Oc1ccc(cc1)C[C@H]1c3c(cc(OC)c(O)c3Oc3cc4c(cc3OC)CCN(C)[C@@H]4C2)CCN1C` [HOMOAROMOLINE], half-maximal inhibition (IC50) required 10.9 µM.

As for `COc1cc(C[C@H]2c3c(ccc(OC)c3O)CCN2C)ccc1O` [ISOCRASSIFOLINE], the midpoint of inhibition, the IC50, lay at 36.2 µM.

`COc1c(O)c2c3c(c1OC)CCN[C@@H]3Cc1ccccc1-2` [ISOPILINE] registered an IC50 of 2.5 µM.

Molecule `COc1ccc2cc1Oc1ccc(cc1)C[C@@H]1c3cc(c(OC)cc3CCN1C)Oc1c(OC)c(OC)cc3c1[C@H](C2)N(C)CC3` [ISOTETRANDRINE] yielded an IC50 of 4.2 µM.

Turning to `COc1cc2c(cc1O)[C@H](Cc1ccc(O)cc1)NCC2` [L-COCLAURINE], 14.1 µM corresponded to half-maximal inhibition (IC50).

As to `O=C1c2ccccc2-c2c3c(cc4ccnc1c24)OCO3` [LIRIODENINE], it took 31.2 µM to reach half-maximal inhibition (IC50).

As to `COc1cc2ccnc3c2c(c1OC)-c1ccccc1C3=O` [LYSICAMINE], the IC50 was above 100 µM.

Molecule `COc1c(O)c2c3c(nccc3c1OC)C(C)(C)c1cc(O)ccc1-2` [MELOSMINE] showed an IC50 of 23.6 µM.

The molecule `COc1cc2c(cc1OC)[C@H](Cc1ccc(O)cc1)NCC2` [NORARMEPAVINE] returned an IC50 of 37 µM.

Consider `COc1cc2c(cc1O)C[C@@H]1NCCc3cc(O)c(OC)c-2c31` [NORBOLDINE], for which the half-maximal inhibitory concentration (IC50) amounted to 16.5 µM.

For the molecule `COc1c2c3c(c4c1OCO4)-c1ccccc1C[C@H]3NCC2` [NORSTEPHALAGINE], 1.4 µM corresponded to half-maximal inhibition (IC50).

`COc1ccc2cc1Oc1ccc(cc1)C[C@H]1c3c(cc(OC)c(OC)c3Oc3cc4c(cc3OC)CCN(C)[C@@H]4C2)CCN1C` [OBABERINE] yielded an IC50 of 3.9 µM.

As to `COc1cc2c(cc1OC)C(=O)c1nccc3ccc(OC)c(c13)O2` [OXOCULARINE], the IC50 is above 100 µM.

Regarding `COc1ccc2c(c1OC)Oc1c(O)ccc3ccnc(c13)C2` [OXOSARCOPHYLLINE], the IC50 was above 100 µM.

The molecule `COc1cc2c(cc1OC)[C@@H](Cc1ccc(OC)c(Oc3ccc(C[C@H]4NCCc5cc(OC)c(OC)cc54)cc3)c1)N(C)CC2` [PAMPULHAMINE] gave an IC50 of 84.2 µM.

`COc1ccc2c(c1O)Oc1c(OC)ccc3c1[C@H](C2)N(C)CC3` [SARCOCAPNIDINE]: the IC50 is 85.5 µM.

With `COc1cc2c3c(c1OC)-c1c(ccc(O)c1O)C[C@H]3N(C)CC2` [SAUVEOLINE], the IC50 was above 100 µM.

For the molecule `COc1cc2c(cc1Oc1c(O)c(OC)cc3c1[C@H](Cc1ccc(OC)c(-c4cc(C=O)ccc4O)c1)N(C)CC3)C(=O)N(C)CC2` [SECANTIOQUINE], the IC50 was above 100 µM.

In turn, `COc1cc2c(cc1OC)Oc1c(O)ccc(CCN(C)C)c1C=C2` [SECOCULARIDINE] had an IC50 of 13.4 µM.

Turning to `COc1cc2c(cc1OC)Oc1c(OC)ccc(CCN(C)C)c1C=C2` [SECOCULARINE], 28.2 µM corresponded to half-maximal inhibition (IC50).

Regarding `COc1ccc(C[C@H]2c3c(cc(OC)c4c3Oc3cc5c(cc3O4)CCN(C)C5=O)CCN2C)cc1-c1cc(C=O)ccc1O` [SECOLUCIDINE], the IC50 was above 100 µM.
